The target of test [1] is HEK293 membranes over-expressing WFS-1 (Homo sapiens (Human), UniProt O76024). Description: Radioligand displacement assay (tritiated Compound 136 probe). Format: binding. The conditions noted are these: displacement of tritiated Compound 136. In short, it runs like this:
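WFS-1-overexpressing HEK293 membranes were preincubated 10 min with compound, then tritiated probe was added for 90 min at room temperature. Bound probe was collected by filtration on PEI-pretreated GF/B filters, washed and scintillation-counted. IC50 came from a 3-parameter fit of bound probe vs compound concentration.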
Background: Displacement assays read how much labelled ligand stays bound in the presence of the test substance.

The test system of test [2] is β-catenin-TCF-mediated reporter transcription activity in Colo 205 cells. The test is described as follows: Colo 205 reporter assay (TCF/LEF luciferase). Format: cell-based. To be noted: five hours after addition of compound. In outline:
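Luciferase signal from a TCF/LEF-driven reporter, stably integrated in Colo 205 colon cancer cells, was measured 5 h after compound addition.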

The mark [3] stands for this setting: Homo sapiens, COLO 205, 5 h, Colo 205 cells with stably transfected TCF/LEF luciferase reporter, read-out: TCF reporter Colo205.
Where [4] appears, read: Homo sapiens, COLO 205, 5 h, Colo 205 TCF/LEF luciferase reporter, read-out: TCF reporter Colo205 IC50.
Where [5] appears, read: Colo 205 TCF/LEF luciferase reporter, read-out: TCF reporter Colo205 IC50.

25 compounds from patent US20230312587A1, “PTERIDINONE COMPOUNDS AND USES THEREOF” (Vertex Pharmaceutical Incorporated, priority 2018, published 2023) can be followed below.

Where two headings read alike, the source gives them in different places.

HEK293 membranes over-expressing WFS-1, sequence (O76024 whole entry): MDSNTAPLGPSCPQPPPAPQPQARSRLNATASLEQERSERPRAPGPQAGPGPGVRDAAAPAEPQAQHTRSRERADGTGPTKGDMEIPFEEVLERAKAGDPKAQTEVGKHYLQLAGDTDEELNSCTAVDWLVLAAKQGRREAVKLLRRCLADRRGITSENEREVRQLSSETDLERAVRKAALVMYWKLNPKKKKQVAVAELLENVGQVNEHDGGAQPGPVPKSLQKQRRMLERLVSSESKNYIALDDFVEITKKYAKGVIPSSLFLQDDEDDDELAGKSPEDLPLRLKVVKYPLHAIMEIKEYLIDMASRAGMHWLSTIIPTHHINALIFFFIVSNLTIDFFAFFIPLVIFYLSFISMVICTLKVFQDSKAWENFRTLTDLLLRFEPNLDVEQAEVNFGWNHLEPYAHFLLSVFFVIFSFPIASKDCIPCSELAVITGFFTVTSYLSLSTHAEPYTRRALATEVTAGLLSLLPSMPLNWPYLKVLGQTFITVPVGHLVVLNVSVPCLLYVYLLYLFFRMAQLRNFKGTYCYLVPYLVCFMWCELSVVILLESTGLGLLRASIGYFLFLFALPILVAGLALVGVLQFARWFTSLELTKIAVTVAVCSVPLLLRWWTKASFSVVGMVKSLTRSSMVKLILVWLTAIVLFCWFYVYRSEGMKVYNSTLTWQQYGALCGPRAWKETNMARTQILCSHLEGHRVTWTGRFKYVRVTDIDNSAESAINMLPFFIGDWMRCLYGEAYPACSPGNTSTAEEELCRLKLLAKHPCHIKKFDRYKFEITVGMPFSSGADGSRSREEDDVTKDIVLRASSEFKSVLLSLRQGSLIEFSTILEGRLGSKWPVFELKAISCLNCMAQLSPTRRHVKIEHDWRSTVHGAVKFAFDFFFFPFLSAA

Regarding `Cc1nc(N(C)Cc2cnn(Cc3ccc(C(F)(F)F)nc3)c2)nc2c1NC(=O)[C@H](C)N2C` [Compound 403, (7S)-4,7,8-trimethyl-2-(methyl((1-((6-(trifluoromethyl)pyridin-3-yl)methyl)-1H-pyrazol-4-yl)methyl)amino)-7,8-dihydropteridin-6(5H)-one], the values for the IC50 in test [1] and in test [2] (setting [3]) were not below 3000 nM and not below 5000 nM, respectively.
As for `CN1C(=O)C(C)(C)N(C)c2nc(NCc3cnn(Cc4cccnc4C(F)(F)F)c3)ncc21` [Compound 237, 5,7,7,8-Tetramethyl-2-(((1-((2-(trifluoromethyl)pyridin-3-yl)methyl)-1H-pyrazol-4-yl)methyl)amino)-7,8-dihydropteridin-6(5H)-one], the IC50 in test [1] was 60 to 600 nM; in test [2] (setting [4]), 300 to 1000 nM.
For `Cc1nc(NCc2cnn(Cc3ccc(C(F)(F)F)nc3)c2)nc2c1NC(=O)C1(CCC1)N2C` [Compound 398, 4′,8′-dimethyl-2′-(((1-((6-(trifluoromethyl)pyridin-3-yl)methyl)-1H-pyrazol-4-yl)methyl)amino)-5′,8′-dihydro-6′H-spiro[cyclobutane-1,7′-pteridin]-6′-one], the results for the IC50 in test [1] and in test [2] (setting [3]) were 60 to 600 nM and less than 300 nM, respectively.
With `Cc1nc(NCc2cnn(Cc3ccc(C(F)(F)F)nc3)c2)nc2c1NC(=O)[C@H](C(C)C)N2C` [Compound 383, (7S)-7-isopropyl-4,8-dimethyl-2-(((1-((6-(trifluoromethyl)pyridin-3-yl)methyl)-1H-pyrazol-4-yl)methyl)amino)-7,8-dihydropteridin-6(5H)-one], the IC50 was less than 60 nM in test [1] and less than 300 nM in test [2] (setting [4]).
Consider `Cc1nc(NCc2ccc(-n3cc(C(F)(F)F)cn3)nc2)nc2c1NC(=O)[C@H](C)N2C` [Compound 143, (S)-4,7,8-trimethyl-2-(((6-(4-(trifluoromethyl)-1H-pyrazol-1-yl)pyridin-3-yl)methyl)amino)-7,8-dihydropteridin-6(5H)-one], for which the IC50 in test [1] lay in the range of 60 to 600 nM; in test [2] (setting [4]) it was 300 to 1000 nM.
The matching figures for `Cc1nc(N[C@H]2C[C@H](COc3cc(F)c(F)c(F)c3)C2)nc2c1NC(=O)[C@H](C)N2C` [Compound 258, (7S)-4,7,8-trimethyl-2-((trans-3-((3,4,5-trifluorophenoxy)methyl)-cyclobutyl)amino)-7,8-dihydropteridin-6(5H)-one]: 60 to 600 nM and 1000 to 5000 nM.
The like results for `Cc1nc(N[C@H]2C[C@H](Oc3cc(F)c(F)c(F)c3)C2)nc2c1NC(=O)[C@H](C)N2C` [Compound 246, (7S)-4,7,8-trimethyl-2-((trans-3-(3,4,5-trifluorophenoxy)cyclobutyl)amino)-7,8-dihydropteridin-6(5H)-one] were, in that order, 60 to 600 nM and less than 300 nM.
Turning to `CCN1c2nc(NCc3cnn(Cc4ccc(C(F)(F)F)nc4)c3)nc(C)c2NC(=O)[C@@H]1C` [Compound 395, (7S)-8-Ethyl-4,7-dimethyl-2-(((1-((6-(trifluoromethyl)pyridin-3-yl)methyl)-1H-pyrazol-4-yl)methyl)amino)-7,8-dihydropteridin-6(5H)-one], the values for the IC50 in test [1] and in test [2] (setting [4]) were 60 to 600 nM and less than 300 nM, respectively.
As to `Cc1cc(F)ncc1Cn1cc(CNc2nc(C)c3c(n2)N(C)[C@@H](C)C(=O)N3)cn1` [Compound 94, (7S)-2-(((1-((6-fluoro-4-methylpyridin-3-yl)methyl)-1H-pyrazol-4-yl)methyl)amino)-4,7,8-trimethyl-7,8-dihydropteridin-6(5H)-one], the values for the IC50 in test [1] and in test [2] (setting [4]) were 60 to 600 nM and less than 300 nM, respectively.
The matching figures for `Cc1nc(NCc2cn(Cc3ccc(C(F)(F)F)nc3)cn2)nc2c1NC(=O)[C@H](C)N2C` [Compound 428, (S)-4,7,8-trimethyl-2-(((1-((6-(trifluoromethyl)pyridin-3-yl)methyl)-1H-imidazol-4-yl)methyl)amino)-7,8-dihydropteridin-6(5H)-one]: not below 3000 nM and not below 5000 nM.
The like results for `Cc1nn(C)cc1Cn1cc(CNc2nc(C)c3c(n2)N(C)[C@@H](C)C(=O)N3)cn1` [Compound 139, (7S)-2-(((1-((1,3-dimethyl-1H-pyrazol-4-yl)methyl)-1H-pyrazol-4-yl)methyl)amino)-4,7,8-trimethyl-7,8-dihydropteridin-6(5H)-one] were, in that order, 600 to 3000 nM and 1000 to 5000 nM.
As to `Cc1nc(NCc2cnn(Cc3ccc(C(F)(F)F)nc3C(C)(C)O)c2)nc2c1NC(=O)[C@H](C)N2C` [Compound 416, (7S)-2-(((1-((2-(2-hydroxypropan-2-yl)-6-(trifluoromethyl)pyridin-3-yl)methyl)-1H-pyrazol-4-yl)methyl)amino)-4,7,8-trimethyl-7,8-dihydropteridin-6(5H)-one], the IC50 was less than 60 nM in test [1] and less than 300 nM in test [2] (setting [4]).
Turning to `CC[C@H]1C(=O)Nc2cnc(NCc3cnn(Cc4ccc(C(F)(F)F)nc4)c3)nc2N1C` [Compound 427, (7S)-7-ethyl-8-methyl-2-(((1-((6-(trifluoromethyl)pyridin-3-yl)methyl)-1H-pyrazol-4-yl)methyl)amino)-7,8-dihydropteridin-6(5H)-one], the IC50 is less than 60 nM in test [1] and 300 to 1000 nM in test [2] (setting [4]).
The matching figures for `Cc1nc(NCc2cnn(Cc3cncc(F)c3)c2)nc2c1NC(=O)[C@H](C(C)C)N2C` [Compound 415, (7S)-2-(((1-((5-fluoropyridin-3-yl)methyl)-1H-pyrazol-4-yl)methyl)amino)-7-isopropyl-4,8-dimethyl-7,8-dihydropteridin-6(5H)-one]: less than 60 nM and less than 300 nM.
The like results for `Cc1nc(N[C@H]2C[C@@H](COc3cc(F)c(F)c(F)c3)C2)nc2c1NC(=O)[C@H](C)N2C` [Compound 257, (7S)-4,7,8-Trimethyl-2-((cis-3-((3,4,5-trifluorophenoxy)methyl)cyclobutyl)-amino)-7,8-dihydropteridin-6(5H)-one] were, in that order, 60 to 600 nM and less than 300 nM.
For the compound `Cc1nc(NCc2cnn(Cc3ccc(C(F)(F)F)nc3)c2)nc2c1NC(=O)[C@H](C)N2C` [Compound 136, (7S)-4,7,8-trimethyl-2-(((1-((6-(trifluoromethyl)pyridin-3-yl)methyl)-111-pyrazol-4-yl)methyl)amino)-7,8-dihydropteridin-6(5H)-one], the IC50 in test [1] was 60 to 600 nM; in test [2] (setting [5]), less than 300 nM.
Consider `Cc1nc(NCc2cnn(CC3CCC3)c2)nc2c1N(C)C(=O)[C@H](C)N2C` [Compound 7, (7S)-2-(((1-(cyclobutylmethyl)-1H-pyrazol-4-yl)methyl)amino)-4,5,7,8-tetramethyl-7,8-dihydropteridin-6(5H)-one], for which the IC50 fell in the range of 60 to 600 nM in test [1] and 300 to 1000 nM in test [2] (setting [4]).
The like results for `Cc1nc(NCc2cnn([C@@H]3C[C@@H]3c3ccc(F)cc3)c2)nc2c1NC(=O)[C@H](C)N2C` [Compound 154, (7S)-2-(((1-((1R,2R)-2-(4-fluorophenyl)cyclopropyl)-1H-pyrazol-4-yl)methyl)amino)-4,7,8-trimethyl-7,8-dihydropteridin-6(5H)-one] were, in that order, less than 60 nM and less than 300 nM.
The like results for `CC[C@H]1C(=O)Nc2cnc(NCc3cnn(Cc4ccc(F)cc4)c3)nc2N1C` [Compound 9, (7S)-7-ethyl-2-(((1-(4-fluorobenzyl)-1H-pyrazol-4-yl)methyl)amino)-8-methyl-7,8-dihydropteridin-6(5H)-one] were, in that order, 60 to 600 nM and less than 300 nM.
The like results for `Cc1nc(NCc2cnn(Cc3ccc(C(F)(F)F)nc3)c2)nc2c1NC(=O)[C@H](C)N2C(C)C` [Compound 385, (7S)-8-isopropyl-4,7-dimethyl-2-(((1-((6-(trifluoromethyl)pyridin-3-yl)methyl)-1H-pyrazol-4-yl)methyl)amino)-7,8-dihydropteridin-6(5H)-one] were, in that order, less than 60 nM and less than 300 nM.
On to `Cc1nc(NCc2cnn(C3CCN(C(=O)c4ccc(F)cc4)CC3)c2)nc2c1NC(=O)[C@H](C)N2C` [Compound 125, (7S)-2-(((1-(1-(4-Fluorobenzoyl)piperidin-4-yl)-1H-pyrazol-4-yl)methyl)amino)-4,7,8-trimethyl-7,8-dihydropteridin-6(5H)-one], for which the IC50 in test [1] is 60 to 600 nM; in test [2] (setting [4]), 1000 to 5000 nM.
For `Cc1nc(N[C@H]2CC[C@H](Oc3ccc(C(F)(F)F)nc3)C2)nc2c1NC(=O)[C@H](C)N2C` (single isomer, unassigned) [Compound 377], the values for the IC50 in test [1] and in test [2] (setting [5]) were less than 60 nM and less than 300 nM, respectively.
Turning to `Cc1nc(NCc2cnn(CCc3ccc(F)cc3)c2)nc2c1NC(=O)[C@H](C)N2C` [Compound 6, (7S)-2-(((1-(4-fluorophenethyl)-1H-pyrazol-4-yl)methyl)amino)-4,7,8-trimethyl-7,8-dihydropteridin-6(5H)-one], the IC50 in test [1] was 60 to 600 nM; in test [2] (setting [4]), 300 to 1000 nM.
`CC[C@H]1C(=O)Nc2c(C)nc(NCc3cnn(Cc4ccc(C(F)(F)F)nc4)c3)nc2N1C` [Compound 186, (7S)-7-ethyl-4,8-dimethyl-2-(((1-((6-(trifluoromethyl)pyridin-3-yl)methyl)-1H-pyrazol-4-yl)methyl)amino)-7,8-dihydropteridin-6(5H)-one]: the IC50 in test [1] is 60 to 600 nM; in test [2] (setting [4]), less than 300 nM.
On to “(7S)-2-(((1-((6-fluoro-2-isopropylpyridin-3-yl)methyl)-1H-pyrazol-4-yl)methyl)(methyl)amino)-7-isopropyl-4,8-dimethyl-7,8-dihydropteridin-6(5H)-one [Compound 430]”, for which the IC50 in test [1] is less than 60 nM; in test [2] (setting [5]), less than 300 nM.
